Assay results published in ChEMBL document CHEMBL4823287, “Design and synthesis of novel 5-alkynyl pyrimidine nucleosides derivatives: Influence of C-6-substituent on antituberculosis activity” (2021).
Values after ≈ are worked out from the molar mass of the structure shown.

Experiments:
Assay type in all cases: functional
[1] = system: Mycobacterium tuberculosis; assay: Antimycobacterial activity against Mycobacterium tuberculosis H37Ra assessed as inhibition of bacterial growth measured by microplate alamar blue assay
[2] = system: Mycobacterium tuberculosis; assay: Antimycobacterial activity against Mycobacterium tuberculosis H37Ra assessed as inhibition of bacterial growth at 10 ug/ml measured by microplate alamar blue assay
[3] = system: Mycobacterium tuberculosis; assay: Antimycobacterial activity against Mycobacterium tuberculosis H37Ra assessed as inhibition of bacterial growth at 100 ug/ml measured by microplate alamar blue assay
[4] = system: Mycobacterium tuberculosis; assay: Antimycobacterial activity against Mycobacterium tuberculosis H37Ra assessed as inhibition of bacterial growth at 50 ug/ml measured by microplate alamar blue assay
[5] = system: Mycobacterium tuberculosis; assay: Antimycobacterial activity against Mycobacterium tuberculosis H37Ra assessed as inhibition of bacterial growth at 25 ug/ml measured by microplate alamar blue assay
[6] = system: Mycobacterium tuberculosis; assay: Antimycobacterial activity against Mycobacterium tuberculosis H37Ra assessed as inhibition of bacterial growth at 1 to 5 ug/ml measured by microplate alamar blue assay; conditions: dose 1-5 µg/ml; at 1 to 5 µg/mL
[7] = system: Mycobacterium tuberculosis; assay: Antimycobacterial activity against Mycobacterium tuberculosis H37Ra assessed as inhibition of bacterial growth at 1 ug/ml measured by microplate alamar blue assay
[8] = system: Mycobacterium tuberculosis; assay: Antimycobacterial activity against Mycobacterium tuberculosis H37Ra assessed as inhibition of bacterial growth at 5 ug/ml measured by microplate alamar blue assay

Row | SMILES | MIC50 [1] | inhibition at 10 µg/mL [2] | inhibition at 100 µg/mL [3] | inhibition at 50 µg/mL [4] | inhibition at 25 µg/mL [5] | inhibition (percent inhibition of bacterial growth) [6] | inhibition at 1 µg/mL [7] | inhibition at 5 µg/mL [8]
1 | CC#Cc1c(C)n([C@@H]2O[C@H](CO)[C@@H](O)[C@H]2O)c(=O)[nH]c1=O | 50 µg/mL (≈ 169 µM) | 10% | 90% | 50% | – | – | – | –
2 | Cc1c(C#CC2CCCCC2)c(=O)[nH]c(=O)n1[C@@H]1O[C@H](CO)[C@@H](O)[C@H]1O | 14.1 µg/mL (≈ 38.7 µM) | – | – | 100% | 60% | 10% | – | –
3 | CCCCC#Cc1c(C)n([C@@H]2O[C@H](CO)[C@@H](O)[C@H]2O)c(=O)[nH]c1=O | 17.7 µg/mL (≈ 52.3 µM) | – | – | 100% | 60% | 10% | – | –
4 | NNC(=O)c1ccncc1 [ISONIAZID] | 0.8 µg/mL (≈ 5.83 µM) | – | – | – | – | – | 100% | –
5 | CCCC#Cc1c(C)n([C@@H]2O[C@H](CO)[C@@H](O)[C@H]2O)c(=O)[nH]c1=O | < 50 µg/mL | 0% | 90% | 60% | – | – | – | –
6 | N[C@@H]1CONC1=O [CYCLOSERINE] | 5.2 µg/mL (≈ 50.9 µM) | 67% | – | – | – | – | – | 50%
7 | Cc1c(C#CCC(C)C)c(=O)[nH]c(=O)n1[C@@H]1O[C@H](CO)[C@@H](O)[C@H]1O | 18.1 µg/mL (≈ 53.5 µM) | – | – | 100% | 60% | 10% | – | –
8 | CCC#Cc1c(C)n([C@@H]2O[C@H](CO)[C@@H](O)[C@H]2O)c(=O)[nH]c1=O | 50 µg/mL (≈ 161 µM) | 10% | 90% | 50% | – | – | – | –
9 | CO[C@H]1/C=C/O[C@@]2(C)Oc3c(C)c(O)c4c(O)c(c(/C=N/N5CCN(C)CC5)c(O)c4c3C2=O)NC(=O)/C(C)=C\C=C\[C@H](C)[C@H](O)[C@@H](C)[C@@H](O)[C@@H](C)[C@H](OC(C)=O)[C@@H]1C [RIFAMPIN] | 0.7 µg/mL (≈ 0.851 µM) | – | – | – | – | – | 100% | –
10 | Cc1c(C#CC2CC2)c(=O)[nH]c(=O)n1[C@@H]1O[C@H](CO)[C@@H](O)[C@H]1O | 2.3 µg/mL (≈ 7.14 µM) | 80% | 90% | – | – | 50% | – | –
11 | Cc1c(C#CC(O)c2ccccc2)c(=O)[nH]c(=O)n1[C@@H]1O[C@H](CO)[C@@H](O)[C@H]1O (stereo partly specified) | 0.6 µg/mL (≈ 1.54 µM) | – | – | – | – | – | 100% | –
12 | Cc1c(C#C[Si](C)(C)C)c(=O)[nH]c(=O)n1[C@@H]1O[C@H](CO)[C@@H](O)[C@H]1O | – | – | 0% | – | – | – | – | –
13 | CCCCCCC#Cc1c(C)n([C@@H]2O[C@H](CO)[C@@H](O)[C@H]2O)c(=O)[nH]c1=O | < 50 µg/mL | – | 90% | 70% | – | – | – | –
14 | Cc1c(C#Cc2ccccc2)c(=O)[nH]c(=O)n1[C@@H]1O[C@H](CO)[C@@H](O)[C@H]1O | 2.6 µg/mL (≈ 7.26 µM) | 75% | 90% | 75% | – | 50% | – | –
